The results in this text go back to US8815863B2, “Compounds and therapeutic use thereof for protein kinase inhibition” (priority 2009, dated 2014).

Structures are written as SMILES. pIC50: −log10 of the molar value. Where two headings read alike, the source gives them in different places.

One data set concerns Human colon cancer HT-99. Put plainly: Human colon cancer HT-99 transplanted nude mice. The format is in vivo. The settings on record: GCT 20 mg/kg ip, compound 1 15 mg/kg iv. The method, then: Some of the above compounds are tested in vitro or in vivo for their anti-cancer or anti-tumor activities, as well as cellular toxicity tests using SRB and MTT methods. The in vitro anti-cancer effects on human cancer HT-29 and mouse lung cancer cell 3LL are summarized in Table 1, and the effects on treating transplanted human colon cancer […] on nude mice are summarized in Table 2.

Another data set relates to HT-29 Cell line. Put plainly: SRB cell multiplication test, sensitizing to cytotoxic antitumor drugs.
Another data set deals with human ovarian cancer. Put plainly: Human ovarian cancer transplanted nude mice, combination with Gemcitabine. The format is in vivo, nude mice BALB/c-nu. The method, then:
The compound used for this test is XC608, shown above, and XC608-Cl is the chloride salt of XC608, 090208-1, also a whitish powder. AZD7762 is a yellow powder.
All of the above are dissolved in 5% glucose injectible solution and diluted to suitable concentrations. Control: Gemcitabine is obtained from Jiangsu Haosen Pharmaceuticals Co., Ltd., also dissolved to suitable concentration in saline solution.
Test animals: 30 nude mice BALB/c-nu, female, bw 18-20 g, supplied by B&K Universal Group Limited, Shanghai, China. Cancer cell lines: the human ovarian cell line is from a commercial source, transplanted onto nude mice, which were maintained by Shanghai Pharmaceutical Industry Research Institute.
The tumors from the ovarian cancer carrying nude mice is isolated and cut into 1-mm^3 pieces, which are then implanted subcutaneously to the test nude mice. After 10 days, the tumors grow to a size of about 0.1 cm^3. The test mice are randomly divided into 5 groups of six animals.
(§1) Starting from 11 days after tumor implant, the animals are administered the test compounds i.v. The animals are weighed every two days, and the tumor volume is measured. After 24 days from the beginning of test compound administration, the animals are killed and the tumors are isolated and weighed.
The tumor volume (TV) is measured and calculated.
Relative Tumor volume (RTV) is Vt/V0, wherein Vt is the tumor volume at the measurement time, while V0 is the tumor volume when drug administration was started.
A compound's antitumor activity is measured by the RTV growth rate, T/C (%), which is calculated as: T/C=Treatment RTC/Control Group RTC×100%.
If TC(%) is more than 60, then the treatment is considered to have no effect. Only when the TC is less than 60, an the difference is statistically significant would the treatment be considered to be effective.
Another measurement is rate of tumor inhibition, which is IR (%)=(control group tumor weight−treatment group tumor weight)/control group tumor weight×100%.

Data set [1] is described as follows: Body weight of ovarian cancer transplanted nude mice. The format is in vivo, nude mice BALB/c-nu. The settings on record: i.v. As to the method:
as §1

Procedure for HT-29 Cell line: 3.2 Cell Lines: HT-29 Cell line (from ATCC).
Test Protocol: The effects of the compounds on cancer cell multiplication was measured using Sulforhodamine B (SRB). Specifically, log phase cells are inoculated into the holes of 96-hole culture plates, allowed to grow using the wall-adhesion procedure at 37° C. under 5% CO2. The test compound at 9 different concentrations were added, each concentration in duplicate, with appropriate saline water and cell-less controls. The cells are cultured for a further 72 hours, and fixed with TCA, and SRB is added for staining, and washed, and air-dried. After adding the Tris solution, the OD value was measured at 510 nm using a Spectra Max 190. The rate of inhibition is calculated according to the formula below: Rate of Inhibition=(ODcontrol−ODdrug)/ODcontrol×100%.
The IC50 is calculated based on the above ratios.

As to `Nc1ccn([C@@H]2O[C@H](CO)[C@@H](O)C2(F)F)c(=O)n1` [Gemcitabine, gemcitabine], the “TC (%)” value in the data set with Human colon cancer HT-99 is recorded as 45%. Besides, the pIC50 with HT-29 Cell line (Homo sapiens, HT-29, 72 h, read-out: IC50 Drug alone) was 7.15; in the data set on HT-29 Cell line (read-out: IC50 +10 nM AZD7762, HT-29, SRB, 72 hours, drug +10 nM AZD7762), 7.52; with HT-29 Cell line (read-out: IC50 +100 nM AZD7762, HT-29, SRB, 72 hours, drug +100 nM AZD7762), 8.30; with HT-29 Cell line (read-out: IC50 +1 μM XC608, HT-29, SRB, 72 hours, drug +1 μM XC608) it was 8.52. Also, the “TV Dn” value in the data set with human ovarian cancer (Dn, end of test, i.v.) was 1734.05 ± 586.49 mm^3. Further, the RTV dn with human ovarian cancer (Vt/V0 at dn) was determined as 12.07. Moreover, the “TV d0” value with human ovarian cancer (d0, start of administration) amounted to 143.67 ± 44.38 mm^3. In the data set on human ovarian cancer (isolated tumors at dn), the “Tumor Weight dn” value is given as 2.85 g. The “Tumor RI % dn” value with human ovarian cancer (rate of tumor inhibition by tumor weight versus control) is on record as 19.72%. The “T/C % Dn” value in the data set with human ovarian cancer (treatment RTV/control RTV, *p < 0.05, **p < 0.01) amounted to 82.27%. For the same compound, the “Body Weight (no tumor) Dn” value in data set [1] (Dn, end of test) was found to be 22.65 g. Further, the “Body Weight (with tumor) d0” value in data set [1] (d0, start of administration) was determined as 21.38 g. Further, the “Body Weight (with tumor) dn” value in data set [1] (dn, end of test) stood at 25.50 g.

A word on the pIC50: it is the IC50 on a negative log10 scale, so that one unit is a factor of ten.
